The text below walks through data of patent US20220298145A1, “BRAF INHIBITORS AS PARADOX BREAKERS” (Hoffmann-La Roche Inc., priority 2019, published 2022).

Structures are written as SMILES. Where two headings read alike, the source gives them in different places.

The target in one assay is BRAF (V600E) (Homo sapiens, UniProt P15056, V600E). The assay is described as follows: Kd for RAF kinases: BRAF (V600E). It counts as binding.
The target of the next assay is BRAF (Homo sapiens, UniProt P15056). Kind of assay: Kd for RAF kinases: BRAF. The class given is binding.
Chain of BRAF (P15056 whole entry): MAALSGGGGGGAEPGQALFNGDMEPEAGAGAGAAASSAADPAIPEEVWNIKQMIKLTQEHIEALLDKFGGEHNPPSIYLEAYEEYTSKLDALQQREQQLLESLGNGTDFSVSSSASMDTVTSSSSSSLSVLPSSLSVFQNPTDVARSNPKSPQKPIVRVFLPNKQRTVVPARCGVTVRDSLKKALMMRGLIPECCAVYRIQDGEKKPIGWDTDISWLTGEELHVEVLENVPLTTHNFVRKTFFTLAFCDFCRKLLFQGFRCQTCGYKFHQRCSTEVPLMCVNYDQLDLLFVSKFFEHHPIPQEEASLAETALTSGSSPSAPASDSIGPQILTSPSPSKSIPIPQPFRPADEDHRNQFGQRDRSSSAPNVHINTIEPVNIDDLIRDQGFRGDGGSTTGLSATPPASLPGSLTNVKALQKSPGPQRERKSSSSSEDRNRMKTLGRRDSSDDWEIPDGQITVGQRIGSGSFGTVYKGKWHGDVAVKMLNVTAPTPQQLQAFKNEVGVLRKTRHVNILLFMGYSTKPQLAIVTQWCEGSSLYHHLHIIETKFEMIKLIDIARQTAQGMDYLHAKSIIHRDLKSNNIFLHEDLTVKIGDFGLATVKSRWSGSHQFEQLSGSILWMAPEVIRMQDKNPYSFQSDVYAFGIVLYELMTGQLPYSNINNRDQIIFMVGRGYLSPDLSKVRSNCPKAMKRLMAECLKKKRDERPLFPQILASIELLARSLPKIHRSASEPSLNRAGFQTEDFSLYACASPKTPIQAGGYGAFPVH
The next assay has as its target CRAF (Homo sapiens, UniProt P04049). The assay is described as follows: Kd for RAF kinases: CRAF. The class given is binding.
For assay [1], the system named is ERK 1,2 phosphorylation in A375 cells expressing V600E mutated BRAF. Kind of assay: HTRF assay for P-ERK determination in A375 cells (BRAF inhibition). It counts as cell-based. As to conditions: Homo sapiens, A-375, 1 h, read-out: pERK IC50 A375. An excerpt: DMEM no-phenol red medium supplemented with L-glutamine was purchased from (Thermo Fisher Scientific). Fetal bovine serum (FBS) was purchased from VWR. Advanced ERK phospho-T202/Y204 kit-10,000 tests was purchased from Cisbio cat #64AERPEH. A375 and HCT116 cells were originally obtained from ATCC and banked by the Roche repository.
A375 is a cellular cancer model expressing V600E mutated BRAF and HCT116 a cellular cancer model expressing WT BRAF. […] ERK 1,2 phosphorylation (terminal member of the phosphorylation cascade of the MAPK pathway) is hereafter reported as main readout for the activation status of the MAPK pathway. Prior to the assay, A375 and HCT116 cell lines are maintained in DMEM no-phenol red medium supplemented with 10% fetal bovine serum (FBS). […] Briefly, 8000 cells/well in 12 μl media/well are plated in the 384-well plate and left overnight in the incubator (at 37° C. with 5% CO2-humidified atmosphere), the following day the plate is treated in duplicate with test compounds, dabrafenib and PLX8394 (the latter two as controls) at the following final drug concentrations: 10 μM-3 μM-1 μM-0.3 μM-0.1 μM-0.03 μM-0.01 μM-0.003 μM-0.001 μM, all wells are subjected to DMSO normalization and drug incubation occurs for 1 hour. Then, 4 μl of a 4× lysis buffer supplied with the kit are added to the wells, the plate is then centrifuged for 30 second (300 rcf) and incubated on a plate shaker for 1 h at RT.
(§1) At the end of the incubation 4 μL/well of advanced P-ERK antibody solution (prepared according to manufacturer's instruction) followed by 4 μL/well of criptate P-ERK antibody solution (prepared according to manufacturer's instruction) (Cisbio cat #64AERPEH) are added to test wells.
(§2) In order to allow proper data normalization control wells non drug treated reported in the following table are always included in each plate (according to manufacturer's instruction):
(§3) The plate is then centrifuged at 300 rcf for 30 second, sealed to prevent evaporation and incubated overnight in the dark at room temperature.
(§4) The obtained fluorescence values are processed according to the formula Ratio=Signal (620 nm)/Signal (625 nm)*10000 then the average of the ratio on the blank is subtracted to all values.
Data are normalized in the case of A375 cells (BRAF inhibition) considering the average of the ratio (blank subtracted) derived by DMSO only treated cells as 100% and by considering the average of the ratio (blank subtracted) derived by 10 uM dabrafenib treated cells as 0%. Mean of the normalized points are fitted with sigmoidal curve and IC50 determined.
(In TR-FRET formats the signal depends on donor and acceptor labels being close together.)

In assay [2] the test system is ERK 1,2 phosphorylation in HCT116 cells expressing WT BRAF. Kind of assay: HTRF assay for P-ERK determination in HCT116 cells (paradoxical BRAF activation). It counts as cell-based. Particulars: for Emax: Homo sapiens, HCT-116, read-out: Percentage of maximum paradox inducing effect from dabrafenib; for EC50: read-out: P-ERK EC50 conc. at which the compound induces p-ERK activation of 50% of that induced by dabrafenib (Positive control paradox inducer) HCT-116, HCT-116 cells, 1 hour drug incubation, not applicable = activation does not reach 50% of dabrafenib maximum.
Text: DMEM no-phenol red medium supplemented with L-glutamine was purchased from (Thermo Fisher Scientific). Fetal bovine serum (FBS) was purchased from VWR. Advanced ERK phospho-T202/Y204 kit-10,000 tests was purchased from Cisbio cat #64AERPEH. A375 and HCT116 cells were originally obtained from ATCC and banked by the Roche repository. 384-well microplates were purchased from Greiner Bio-One, 384-well, (With Lid, HiBase, Low volume cat 784-080).
A375 is a cellular cancer model expressing V600E mutated BRAF and HCT116 a cellular cancer model expressing WT BRAF. First generation BRAF inhibitors such as e.g. dabrafenib induce a paradox effect on tumour cells in that they inhibit the growth of V600E mutated BRAF cells (such as e.g. A375), while they activate growth in WT BRAF cells (such as e.g. HCT 116). ERK 1,2 phosphorylation (terminal member of the phosphorylation cascade of the MAPK pathway) is hereafter reported as main readout for the activation status of the MAPK pathway. Prior to the assay, A375 and HCT116 cell lines are maintained in DMEM no-phenol red medium supplemented with 10% fetal bovine serum (FBS). Following compound treatment, P-ERK levels are determined by measuring FRET fluorescence signal induced by selective binding of 2 antibodies provided in the mentioned kit (Cisbio cat #64AERPEH) on ERK protein when phosphorylated at Thr202/Tyr204. Briefly, 8000 cells/well in 12 μl media/well are plated in the 384-well plate and left overnight in the incubator (at 37° C. with 5% CO2-humidified atmosphere), the following day the plate is treated in duplicate with test compounds, dabrafenib and PLX8394 (the latter two as controls) at the following final drug concentrations: 10 μM-3 μM-1 μM-0.3 μM-0.1 μM-0.03 μM-0.01 μM-0.003 μM-0.001 μM, all wells are subjected to DMSO normalization and drug incubation occurs for 1 hour. Then, 4 μl of a 4× lysis buffer supplied with the kit are added to the wells, the plate is then centrifuged for 30 second (300 rcf) and incubated on a plate shaker for 1 h at RT.
as §1, §2, §3
The plate is then analyzed and fluorescence emission value collected through a Pherastast FSX (BMG Labtech) apparatus at […].
as §4
Data are normalized in the case of HCT116 cells (BRAF activation) considering the average of the ratio (blank subtracted) derived by DMSO only treated cells as 0% and by considering the average of the ratio (blank subtracted) derived by dabrafenib treated cells at the concentration which provides the highest signal as 100%. Individual points are fitted with either sigmoidal or bell shape curves, and the percentage of activation compared to maximum dabrafenib-mediated activation is determined. The EC50 is the concentration at which activation equal to 50% of the maximum achieved by dabrafenib is obtained.
The Percentage of Maximum paradox inducing effect from dabrafenib is determined by evaluating the percentage at which the test compound induce its maximum P-ERK signal as percentage of the highest signal produced by dabrafenib within the dose range tested.

Chain of BRAF (V600E) (P15056 whole entry V600E): as the sequence (P15056 whole entry) above, with V600E counted along it
Chain of CRAF (P04049 whole entry): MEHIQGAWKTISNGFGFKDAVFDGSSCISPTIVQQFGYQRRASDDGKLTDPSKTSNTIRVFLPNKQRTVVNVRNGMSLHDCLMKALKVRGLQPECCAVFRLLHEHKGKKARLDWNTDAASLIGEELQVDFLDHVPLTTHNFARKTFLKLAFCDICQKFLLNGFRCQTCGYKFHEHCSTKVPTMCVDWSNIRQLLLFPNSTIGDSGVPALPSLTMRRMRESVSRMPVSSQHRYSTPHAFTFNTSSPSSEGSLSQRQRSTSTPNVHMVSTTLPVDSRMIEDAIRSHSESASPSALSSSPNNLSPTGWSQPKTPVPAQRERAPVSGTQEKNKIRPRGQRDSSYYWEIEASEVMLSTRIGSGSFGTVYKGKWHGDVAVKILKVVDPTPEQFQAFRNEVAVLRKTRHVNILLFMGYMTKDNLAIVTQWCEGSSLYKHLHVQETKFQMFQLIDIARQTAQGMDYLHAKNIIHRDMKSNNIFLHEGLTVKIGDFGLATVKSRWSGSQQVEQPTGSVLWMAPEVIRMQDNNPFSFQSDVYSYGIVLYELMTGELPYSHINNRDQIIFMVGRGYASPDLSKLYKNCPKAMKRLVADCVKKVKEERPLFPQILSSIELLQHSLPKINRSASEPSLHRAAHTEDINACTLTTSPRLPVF

Take `Cn1cnc2ccc(Nc3c(Cl)ccc(NS(=O)(=O)N4CCCC4)c3C#N)cc2c1=O` [Example 14, N-[4-chloro-2-cyano-3-[(3-methyl-4-oxo-quinazolin-6-yl)amino]phenyl]pyrrolidine-1-sulfonamide]: the Kd came to 0.7 nM on BRAF (V600E) (read-out: Kd BRAF (V600E)), 1.4 nM on BRAF (read-out: Kd BRAF) and 1.5 nM at CRAF. For the same compound, the IC50 in assay [1] was determined as 13.7 nM. For the same compound, the Emax in assay [2] worked out at 74%. In addition, the EC50 in assay [2] was determined as 204 nM.

For `Cn1cnc2ccc(Oc3c(F)ccc(NS(=O)(=O)N4CCCC4)c3C#N)cc2c1=O` [Example 15, N-[2-cyano-4-fluoro-3-(3-methyl-4-oxo-quinazolin-6-yl)oxy-phenyl]pyrrolidine-1-sulfonamide], the Kd at BRAF (V600E) (read-out: Kd BRAF (V600E)) amounted to 0.9 nM; at BRAF (read-out: Kd BRAF), 0.4 nM; at CRAF, 0.8 nM. Further, the IC50 in assay [1] was 1.6 nM. Also, the Emax in assay [2] worked out at 63%. Further, the EC50 in assay [2] is 172 nM.

Regarding `Cn1cnc2ccc(Oc3c(F)ccc(NS(=O)(=O)C4CCCC4)c3C#N)cc2c1=O` [Example 16, N-[2-cyano-4-fluoro-3-(3-methyl-4-oxo-quinazolin-6-yl)oxy-phenyl]cyclopentanesulfonamide], the figures for the Kd at BRAF (V600E), on BRAF and on CRAF were 1.9 nM, 1 nM and 0.7 nM, respectively. Besides, the IC50 in assay [1] is 2.3 nM. Further, in assay [2], the Emax was 70%. Further, the EC50 in assay [2] is 152 nM.

For `CN(C)S(=O)(=O)Nc1ccc(F)c(Oc2ccc3ncn(C)c(=O)c3c2)c1C#N` [Example 17, 6-[2-cyano-3-(dimethylsulfamoylamino)-6-fluoro-phenoxy]-3-methyl-4-oxo-quinazoline], the values for the Kd at BRAF (V600E), on BRAF and at CRAF were 4.3 nM, 1.7 nM and 3 nM, respectively. Moreover, the IC50 in assay [1] came out at 2.6 nM. Further, the Emax in assay [2] is 71%. Besides, in assay [2], the EC50 was determined as 970 nM.

In general, Kd refers to the concentration at which binding is half-saturated. For orientation: IC50 means the concentration that gives 50% inhibition. The term EC50 denotes the concentration giving half of the maximal effect.
